Experiments:
[1] = test system: anti-CD20 CAR expression in primary T cells; assay: Induction of anti-CD20 CAR expression in transduced primary T cells, flow cytometry; type: cell-based, human; conditions: 0-250 nM 4-OHT, 40 h
Procedure: Lentiviral particles encoding for the different drug-inducible cassettes were manufactured as described in example 1.2. Drug-inducible T cells were generated as described in example 1.3. 1E4 LNGFR positive drug-inducible T cells were seeded in 100 μL TexMACS medium (Miltenyi Biotec) supplemented with IL-7 (Miltenyi Biotec) and IL-15 (Miltenyi Biotec) in a 96-round bottom well plate. Anti-CD20 CAR expression was induced by the addition of different concentrations of 4-OHT (0-250 nM, Sigma-Aldrich) in 100 μL μL TexMACS medium (Miltenyi Biotec) supplemented with IL-7 (Miltenyi Biotec) and IL-15 (Miltenyi Biotec) to each well. Untransduced T cells constitute the negative control. T cells that 10 constitutively express an anti-CD20 CAR (“direct CAR”) represent the positive control. Cells were incubated at 37° C. and 5% CO2. T cells were analyzed 40h post induction for anti-CD20 CAR expression by flow cytometry using anti-CD20 CAR detection reagent-PE. […]
Staining was performed for 10 min at 4° C. followed by two successive washing steps with 200 L PEB (300 g, 5 min). […] Frequency of anti-CD20 CAR+inducible T cells (left graph) and mean fluorescence intensity (MFI) of anti-CD20 CAR expression (right graph) was determined and normalized to the expression of the transduction marker LNGFR. […]

[2] = cited from earlier work

Compound	anti-CD20 CAR surface expression (MFI) versus drug dose [1]	induction ratios of anti-CD20 CAR expression versus drug dose [1]	steady-state plasma levels ([2]; after 80 days of daily dosing) [ng/mL]	average peak plasma concentration ([2]; single oral dose of 20 mg) [ng/mL]
4-hydroxytamoxifen [4-OHT]	steadily increased with the drug dose	higher drug doses resulting in greater induction ratios	–	–
CC/C(=C(\c1ccccc1)c1ccc(OCCN(C)C)cc1)c1ccccc1 [tamoxifen, 2-(4-((1Z)-1,2-diphenyl-1-butenyl)phenoxy)-N,N-dimethylethanamine]	–	–	71 to 183	40
